Values of other authors, collected in US7588907B2, “Ubiquitin mediated fluorescence complementation assay” (The Regents of the University of Michigan, priority 2005, dated 2009).
Residues, ends and D or L forms follow the SMILES beside them. *: point of attachment. Cbz = O=C(OCc1ccccc1)*

System: Jun ubiquitinated by DCX^hDET1-hCOP1
Settings: cells that overexpressed DCX^hDET1-hCOP1 E3 ligase

## CC(C)C[C@@H](C=O)NC(=O)[C@H](CC(C)C)NC(=O)[C@H](CC(C)C)NC(=O)OCc1ccccc1 [MG132] (Cbz-Leu-Leu-Leu-aldehyde)
  effect on Jun degradation: inhibited
